Test results reported in ChEMBL document CHEMBL1201862, “PubChem BioAssay data set” (2004).
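Assay format: 96-well plates, 48-hour exposure. Abbreviation: GI50, concentration required for 50% inhibition of growth.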 The source made the active and inactive calls. Rule as the data show it: active = GI50 up to about 1.1 µM and inactive = higher.

Legend:
Assay in all cases: DTP human tumour cell line panel, 48 h
RXF 393 = system: RXF 393
UACC-62 = system: UACC-62
Malme-3M = system: Malme-3M
UACC-257 = system: UACC-257
HL-60 = system: HL-60
SNB-75 = system: SNB-75
NCI-H522 = system: NCI-H522
HCT-116 = system: HCT-116
SK-OV-3 = system: SK-OV-3
HCT-15 = system: HCT-15
M14 = system: M14
BT-549 = system: BT-549
RPMI-8226 = system: RPMI-8226
OVCAR-5 = system: OVCAR-5
A549 = system: A549
ACHN = system: ACHN
PC-3 = system: PC-3
MDA-MB-435 = system: MDA-MB-435
COLO 205 = system: COLO 205

SMILES	GI50 (RXF 393)	GI50 (UACC-62)	GI50 (Malme-3M)	GI50 (UACC-257)	GI50 (HL-60)	GI50 (SNB-75)	GI50 (NCI-H522)	GI50 (HCT-116)	GI50 (SK-OV-3)	GI50 (HCT-15)	GI50 (M14)	GI50 (BT-549)	GI50 (RPMI-8226)	GI50 (OVCAR-5)	GI50 (A549)	GI50 (ACHN)	GI50 (PC-3)	GI50 (MDA-MB-435)	GI50 (COLO 205)
CCN(CC)C(=S)/N=C(\SC(=S)N(CC)CC)c1ccccc1	> 49.3 µM (inactive)	39.6 µM (inactive)	22.4 µM (inactive)	45.7 µM (inactive)	1.27 µM (inactive)	24.1 µM (inactive)	0.119 µM (active)	14.6 µM (inactive)	47.3 µM (inactive)	27.7 µM	37.5 µM (inactive)	> 60.4 µM (inactive)	2.48 µM (inactive)	> 80 µM (inactive)	20.8 µM (inactive)	> 68.2 µM (inactive)	26.9 µM (inactive)	> 59 µM (inactive)	0.522 µM (active)
COc1ccc(NC(=O)CC(=O)n2nc(C)c(/N=N/c3cccc(C)c3)c2C)cc1	> 100 µM (inactive)	> 100 µM (inactive)	> 100 µM (inactive)	> 10 µM (inactive)	> 100 µM (inactive)	40.8 µM (inactive)	> 100 µM (inactive)	> 100 µM (inactive)	18.6 µM (inactive)	> 100 µM	> 100 µM (inactive)	> 100 µM (inactive)	91.8 µM (inactive)	> 100 µM (inactive)	> 100 µM (inactive)	> 100 µM (inactive)	> 100 µM (inactive)	> 100 µM (inactive)	> 100 µM (inactive)
N#CCCN(CCC#N)c1ccc(/C=C2\SC(=S)NC2=O)cc1Br	86.3 µM (inactive)	> 100 µM (inactive)	16.9 µM (inactive)	> 100 µM (inactive)	79.8 µM (inactive)	17.8 µM (inactive)	76 µM (inactive)	> 100 µM (inactive)	28.6 µM (inactive)	> 100 µM	> 100 µM (inactive)	37.3 µM (inactive)	> 100 µM (inactive)	> 100 µM (inactive)	> 100 µM (inactive)	67.9 µM (inactive)	> 100 µM (inactive)	> 100 µM (inactive)	> 100 µM (inactive)
COC(=O)C1([C@@H]2C[C@@H](O)[C@]3(C)CC/C=C(\C)CCC[C@H](C)[C@H](O)[C@@H]2O3)CC1	52 µM (inactive)	66.8 µM (inactive)	> 100 µM (inactive)	56.1 µM (inactive)	> 100 µM (inactive)	0.286 µM (active)	38.5 µM (inactive)	51.2 µM (inactive)	> 100 µM (inactive)	34.9 µM	53.3 µM (inactive)	53.7 µM (inactive)	50.7 µM (inactive)	80.5 µM (inactive)	33.9 µM (inactive)	24.8 µM (inactive)	31.8 µM (inactive)	77.6 µM (inactive)	57 µM (inactive)
Clc1cc(-c2ccccc2)nc2ccccc12	31.7 µM (inactive)	42.6 µM (inactive)	38 µM (inactive)	34.8 µM (inactive)	22.5 µM (inactive)	28.6 µM (inactive)	17 µM (inactive)	32.5 µM (inactive)	> 100 µM (inactive)	16 µM	37.6 µM (inactive)	18.8 µM (inactive)	23.7 µM (inactive)	> 100 µM (inactive)	35.6 µM (inactive)	38.5 µM (inactive)	24.8 µM (inactive)	26.2 µM (inactive)	19.5 µM (inactive)
O=[N+]([O-])c1ccc(N/N=C/c2ccc(OCCCCCCCCCCCO)cc2)c([N+](=O)[O-])c1	2.07 µM (inactive)	2.32 µM (inactive)	1.72 µM (inactive)	4.91 µM (inactive)	5.56 µM (inactive)	1.94 µM (inactive)	2.35 µM (inactive)	17.4 µM (inactive)	4.24 µM (inactive)	9.12 µM	1.39 µM (inactive)	5.94 µM (inactive)	30.9 µM (inactive)	14.8 µM (inactive)	5.96 µM (inactive)	9.2 µM (inactive)	2.45 µM (inactive)	2.48 µM (inactive)	2.01 µM (inactive)
COc1cccc2c1C(=O)c1c(O)c3c(c(O)c1C2=O)C[C@@](O)(C(C)=O)CC3OC1CC(OC2CC(N)C(O)C(C)O2)C(O)C(C)O1 (some centres not stated)	83 µM (inactive)	66.1 µM (inactive)	38.1 µM (inactive)	> 67.5 µM (inactive)	10.6 µM (inactive)	22.1 µM (inactive)	45.4 µM (inactive)	29.4 µM (inactive)	51.9 µM (inactive)	> 85.1 µM	61.7 µM (inactive)	32.5 µM (inactive)	18.2 µM (inactive)	> 61.2 µM (inactive)	52.5 µM (inactive)	38.7 µM (inactive)	48.6 µM (inactive)	56.2 µM (inactive)	74.6 µM (inactive)
O=Cc1cc2c(o1)C(=O)c1ccccc1C2=O	1.35 µM (inactive)	1.78 µM (inactive)	0.153 µM (active)	0.569 µM (active)	0.286 µM (active)	0.434 µM (active)	1.48 µM (inactive)	0.312 µM (active)	2.85 µM (inactive)	0.281 µM	0.192 µM (active)	0.757 µM (active)	1.82 µM (inactive)	1.77 µM (inactive)	1.32 µM (inactive)	1.98 µM (inactive)	2.53 µM (inactive)	0.197 µM (active)	1.44 µM (inactive)
